Assay results: ChEMBL document CHEMBL1201862, “PubChem BioAssay data set” (2004)
Calls of active or inactive are those of the source.

Key:
[1] = target: Disintegrin and metalloproteinase domain-containing protein 17 (Homo sapiens, UniProt P78536); assay: inhibition of ADAM17 substrate cleavage – biochemical, quenched FRET substrate, counter-screen for ADAM10 exosite inhibitor project, dose response (AID 743253)
[2] = tested on: Streptococcus sp. 'group A'; assay: Streptococcus pyogenes SK(-)GAS viability under kanamycin – luminescence, BacTiterGlo, confirmation, counter-screen for streptokinase expression inhibitor project, dose response (AID 1900); format: functional, organism-based
Streptococcus = assay: GAS UMAA2166 growth inhibition – luminescence, BacTiterGlo, counter-screen for streptokinase expression inhibitor project, dose response (AID 1915); format: functional, organism-based;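 further: potency for reduction of bacterial viability or growth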
Streptokinase A = target: T1, Streptokinase A (Streptococcus pyogenes serotype M1, UniProt P10520); assay: viability-normalized secreted streptokinase activity reduction – plasminogen activation absorbance, OD405, dose response (AID 1914); format: functional, Streptococcus pyogenes M1 GAS;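 further: secreted streptokinase activity via plasminogen activation per viability signal from cell pellet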
T1 sequence (P10520 whole entry): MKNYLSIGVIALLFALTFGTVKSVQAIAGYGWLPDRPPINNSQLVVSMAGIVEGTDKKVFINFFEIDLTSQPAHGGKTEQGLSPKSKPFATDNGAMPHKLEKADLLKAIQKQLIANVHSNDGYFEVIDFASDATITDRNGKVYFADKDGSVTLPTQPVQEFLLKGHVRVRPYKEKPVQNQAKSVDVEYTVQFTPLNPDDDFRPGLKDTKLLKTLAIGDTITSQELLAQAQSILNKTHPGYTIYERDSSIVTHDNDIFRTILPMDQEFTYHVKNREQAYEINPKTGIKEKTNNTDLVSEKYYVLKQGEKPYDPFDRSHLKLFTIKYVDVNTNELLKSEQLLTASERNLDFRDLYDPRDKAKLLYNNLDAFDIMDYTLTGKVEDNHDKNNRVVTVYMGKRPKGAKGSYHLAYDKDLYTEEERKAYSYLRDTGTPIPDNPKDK

Transthyretin = Transthyretin (Homo sapiens, UniProt P02766); assay: Luminescence-based cell-based high throughput dose response assay to identify activators of Transthyretin (TTR) transcription.; format: functional
[3] = Late stage counterscreen for inhibitors of Trypanosoma brucei methionyl tRNA synthetase (MetRS): Luminescence-based cell-based high throughput dose response assay to identify compounds that are cytotoxic to Jurkat human T lymphocyte cells.; format: functional
[4] = target: T2, Methionyl-tRNA synthetase, putative (Trypanosoma brucei brucei, UniProt Q38C91); format: functional, Trypanosoma brucei brucei strain 927/4 GUTat10.1
T2 sequence (Q38C91 whole entry): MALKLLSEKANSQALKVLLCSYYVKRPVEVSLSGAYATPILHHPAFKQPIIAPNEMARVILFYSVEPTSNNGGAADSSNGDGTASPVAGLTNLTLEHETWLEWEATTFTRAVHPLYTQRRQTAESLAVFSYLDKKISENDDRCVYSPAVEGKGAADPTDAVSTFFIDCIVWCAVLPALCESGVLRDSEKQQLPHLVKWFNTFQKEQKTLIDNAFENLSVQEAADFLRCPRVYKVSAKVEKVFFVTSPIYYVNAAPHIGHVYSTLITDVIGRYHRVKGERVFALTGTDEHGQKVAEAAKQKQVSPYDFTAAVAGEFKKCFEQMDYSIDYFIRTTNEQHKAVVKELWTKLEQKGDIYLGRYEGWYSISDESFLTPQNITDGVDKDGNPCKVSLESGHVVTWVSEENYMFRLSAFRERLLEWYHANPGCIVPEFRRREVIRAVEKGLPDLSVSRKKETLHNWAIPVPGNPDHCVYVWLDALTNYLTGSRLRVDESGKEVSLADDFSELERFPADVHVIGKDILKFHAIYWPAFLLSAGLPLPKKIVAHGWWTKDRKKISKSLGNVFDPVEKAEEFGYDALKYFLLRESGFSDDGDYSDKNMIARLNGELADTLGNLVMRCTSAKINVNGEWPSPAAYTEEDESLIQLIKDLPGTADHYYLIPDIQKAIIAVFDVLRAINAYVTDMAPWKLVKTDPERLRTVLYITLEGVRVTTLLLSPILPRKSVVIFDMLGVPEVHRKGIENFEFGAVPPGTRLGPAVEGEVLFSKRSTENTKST

[5] = target: T2, Methionyl-tRNA synthetase, putative; format: functional, Trypanosoma brucei brucei strain 927/4 GUTat10.1; remark: listed apart in the source
[6] = Counterscreen for inhibitors of Trypanosoma brucei methionyl tRNA synthetase (MetRS): Luminescence-based cell-based high throughput dose response assay to identify compounds that are cytotoxic to Jurkat human T lymphocyte cells.; format: functional
[7] = target: Heat shock protein HSP 90-alpha (Homo sapiens, UniProt P07900); assay: Luminescence-based dose response biochemical high throughput screening assay for inhibitors of the Heat Shock Protein 90 (HSP90). [Related pubchem assays: 1831 (Summary AID.), 1846 (Confirmation screen.), 1789 (Primary screen.)]
Prothrombin = Prothrombin (Homo sapiens, UniProt P00734); assay: Thrombin 1536 HTS Dose Response Confirmation. [Related pubchem assays: 1046 (Thrombin 1536 HTS; hits were confirmed in this assay)]; format: functional
[8] = blockers of CRF-binding protein–CRF-R2 complex – cell-based, uHTS hits, 384-well, dose response (AID 651639); format: functional, Homo sapiens; settings: read-out: IC50_Mean
Cytochrome P450 3A4 = Cytochrome P450 3A4 (Homo sapiens, UniProt P08684);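 further: CYP3A4 tested as one member of a cytochrome P450 panel screen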
Chain of Cytochrome P450 3A4 (P08684 whole entry): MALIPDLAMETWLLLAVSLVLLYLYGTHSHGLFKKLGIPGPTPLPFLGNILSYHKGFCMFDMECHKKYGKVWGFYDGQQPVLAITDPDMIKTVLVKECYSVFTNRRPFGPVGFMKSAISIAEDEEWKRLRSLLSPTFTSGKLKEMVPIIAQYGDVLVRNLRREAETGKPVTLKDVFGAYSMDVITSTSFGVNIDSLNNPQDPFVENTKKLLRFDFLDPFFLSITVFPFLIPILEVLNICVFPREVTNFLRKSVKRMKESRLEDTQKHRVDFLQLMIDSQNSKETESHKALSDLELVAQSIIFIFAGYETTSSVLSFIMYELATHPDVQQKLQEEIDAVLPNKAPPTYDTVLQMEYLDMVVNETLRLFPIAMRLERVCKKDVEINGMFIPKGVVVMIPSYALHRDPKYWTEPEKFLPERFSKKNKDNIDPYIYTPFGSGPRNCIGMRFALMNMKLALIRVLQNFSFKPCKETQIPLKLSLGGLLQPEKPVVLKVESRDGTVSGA

[9] = HEK293 Cytotoxicity Assay Measured in Cell-Based System Using Plate Reader - 7071-01_Inhibitor_Dose_CherryPick_Activity_Set2.; format: functional
HEK293 = assay: viability loss in HEK293T cells – cell-based, ATP luminescence, cherry-pick samples, cytotoxicity control, dose response (AID 687005); format: functional; settings: Homo sapiens;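 further: cells exposed to compound for 48 hours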
[10] = target: T3, Corticotropin-releasing factor receptor 2/Corticotropin-releasing factor-binding protein (Homo sapiens, UniProt P24387+Q13324); assay: Dose Response confirmation of uHTS hits for small molecule antagonists of the CRF-binding protein and CRF-R2 receptor complex.; format: functional; settings: read-out: IC50_Mean
T3 sequence (Q13324 whole entry): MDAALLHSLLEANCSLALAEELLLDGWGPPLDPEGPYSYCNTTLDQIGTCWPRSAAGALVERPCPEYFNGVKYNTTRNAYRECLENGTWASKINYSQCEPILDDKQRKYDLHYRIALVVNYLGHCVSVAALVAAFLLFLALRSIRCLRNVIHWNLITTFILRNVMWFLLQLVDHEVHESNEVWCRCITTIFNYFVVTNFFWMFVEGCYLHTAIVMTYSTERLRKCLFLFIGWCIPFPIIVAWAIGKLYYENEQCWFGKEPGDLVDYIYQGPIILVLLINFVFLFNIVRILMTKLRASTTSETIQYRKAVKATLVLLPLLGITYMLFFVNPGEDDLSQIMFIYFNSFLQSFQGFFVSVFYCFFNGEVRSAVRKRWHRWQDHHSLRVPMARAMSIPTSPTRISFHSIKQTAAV
T3 sequence (P24387 whole entry): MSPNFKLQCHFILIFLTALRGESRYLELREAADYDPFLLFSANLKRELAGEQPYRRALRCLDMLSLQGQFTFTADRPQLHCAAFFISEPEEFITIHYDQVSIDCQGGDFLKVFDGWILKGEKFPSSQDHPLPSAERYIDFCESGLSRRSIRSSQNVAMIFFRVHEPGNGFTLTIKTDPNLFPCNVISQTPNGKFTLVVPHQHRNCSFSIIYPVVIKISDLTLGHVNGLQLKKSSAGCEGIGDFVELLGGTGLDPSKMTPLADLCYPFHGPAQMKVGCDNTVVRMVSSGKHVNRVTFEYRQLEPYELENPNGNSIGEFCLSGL

[11] = target: T3, Corticotropin-releasing factor receptor 2/Corticotropin-releasing factor-binding protein; assay: activators of CRF receptor 2 with binding protein – uHTS hits, confirmation (AID 602473); format: functional; settings: read-out: EC50_Mean
[12] = target: Aryl hydrocarbon receptor (Homo sapiens, UniProt P35869); assay: Luminescence-based cell-based high throughput dose response assay for activators of the Aryl Hydrocarbon Receptor (AHR). [Related pubchem assays: 2796 (Primary screen (AHR activators in singlicate)), 2845 (Confirmation screen (AHR activators in triplicate)), 434939 (Counterscreen (PXR activators in triplicate)), 2804 (Summary (AHR activators))]; format: ADME
Chain of Aryl hydrocarbon receptor (P35869 whole entry): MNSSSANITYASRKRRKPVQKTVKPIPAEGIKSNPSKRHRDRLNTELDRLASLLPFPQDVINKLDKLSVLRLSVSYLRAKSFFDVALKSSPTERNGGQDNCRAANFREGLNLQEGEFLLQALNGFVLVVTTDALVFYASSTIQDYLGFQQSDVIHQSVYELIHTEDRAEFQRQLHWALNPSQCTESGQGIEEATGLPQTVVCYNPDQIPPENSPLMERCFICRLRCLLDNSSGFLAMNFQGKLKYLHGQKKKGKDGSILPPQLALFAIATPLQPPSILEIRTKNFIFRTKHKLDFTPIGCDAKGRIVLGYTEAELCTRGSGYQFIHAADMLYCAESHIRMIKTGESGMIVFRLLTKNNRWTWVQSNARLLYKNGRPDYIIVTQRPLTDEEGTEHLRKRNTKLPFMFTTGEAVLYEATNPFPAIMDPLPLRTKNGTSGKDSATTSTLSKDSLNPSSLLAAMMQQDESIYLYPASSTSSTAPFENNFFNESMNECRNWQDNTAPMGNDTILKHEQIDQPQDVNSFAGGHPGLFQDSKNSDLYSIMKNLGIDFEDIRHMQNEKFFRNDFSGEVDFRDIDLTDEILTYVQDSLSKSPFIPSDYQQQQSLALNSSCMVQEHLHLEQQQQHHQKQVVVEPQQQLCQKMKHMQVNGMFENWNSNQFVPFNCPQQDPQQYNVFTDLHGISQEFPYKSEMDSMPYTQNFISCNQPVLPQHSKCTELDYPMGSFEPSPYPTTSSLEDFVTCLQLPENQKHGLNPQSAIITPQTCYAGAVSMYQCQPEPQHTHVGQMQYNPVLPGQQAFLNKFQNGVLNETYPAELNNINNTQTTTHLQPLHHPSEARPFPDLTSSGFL

[13] = blockers of bursicon-stimulated LGR2 cAMP reporter – cell-based, HEK293, CRE-luciferase reporter, cherry pick, set 2, dose response (AID 743343); format: functional;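 further: transfected cells were stimulated with diluted bursicon conditioned medium after compound addition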
[14] = blockade of melanocortin 4 receptor signaling – cell-based, plate reader, cherry pick, counter-screen for LGR2 antagonist project, dose response (AID 743444); format: functional;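 further: transfected HEK 293 cells stimulated with alpha-MSH peptide; potency of inhibitors of the alpha-MSH evoked signal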
[15] = toxicity toward HepG2 liver cells – cell-based, plate reader, cherry-pick, antagonist series, cytotoxicity control, dose response (AID 743416); format: functional
[16] = A549 cell cytotoxicity, dose response, cytotoxicity control, plate reader, cherry-pick, antagonist series (AID 743412); format: functional, cell-based
Protein Tat = Protein Tat (Human immunodeficiency virus type 1 group M subtype B (isolate HXB2)(HIV-1), UniProt P04608); format: functional;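 further: tat binding to TAR RNA read out by fluorescence polarization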
Chain of Protein Tat (P04608 whole entry): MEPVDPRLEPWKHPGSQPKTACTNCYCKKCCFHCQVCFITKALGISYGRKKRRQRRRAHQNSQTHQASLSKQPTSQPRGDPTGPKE

[17] = target: Dual specificity tyrosine-phosphorylation-regulated kinase 1A (Rattus norvegicus, UniProt Q63470); format: biochemical, Homo sapiens
cells [18] = assay: cells
[19] = target: T4, Oxysterols receptor LXR-beta (Homo sapiens, UniProt P55055); format: functional, cell-based;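 further: Cell-based luminescence dose-response assay of agonist activity at LXR, run as a confirmatory counterscreen to a daf-12 agonist screen; HEK293 cells with Gal4-LXR fusion and GAL4-driven luciferase reporter; agonist potency from rising luciferase signal of a Gal4-LXR reporter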
T4 sequence (P55055 whole entry): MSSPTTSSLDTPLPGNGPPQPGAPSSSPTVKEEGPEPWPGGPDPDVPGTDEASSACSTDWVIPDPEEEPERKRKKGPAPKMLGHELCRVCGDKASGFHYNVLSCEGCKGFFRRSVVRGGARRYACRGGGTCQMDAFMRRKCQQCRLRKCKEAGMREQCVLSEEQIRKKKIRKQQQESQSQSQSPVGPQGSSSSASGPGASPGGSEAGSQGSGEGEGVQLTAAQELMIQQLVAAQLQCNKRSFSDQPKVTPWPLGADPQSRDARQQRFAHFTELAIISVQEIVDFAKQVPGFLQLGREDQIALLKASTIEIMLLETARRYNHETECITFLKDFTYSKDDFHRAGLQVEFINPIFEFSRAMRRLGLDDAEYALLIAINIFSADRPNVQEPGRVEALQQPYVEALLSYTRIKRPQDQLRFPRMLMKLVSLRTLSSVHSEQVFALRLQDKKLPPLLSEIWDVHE

[20] = viability of uninfected HEp-2 cells – cell-based, HTS, cytotoxicity control for RSV inhibitor project, dose response (AID 2410); format: functional; settings: human respiratory syncytial virus
[21] = P. falciparum Dd2 growth inhibitors, dose response, SYBR Green, cherry-picked samples (AID 1159567); format: functional, cell-based
[22] = toxicity to human hepatoma HepG2 cells – cell-based, cherry-picked samples, cytotoxicity control, dose response (AID 1159577); format: functional
cells [23] = format: functional, cell-based; settings: INS-1E
[24] = IC50 of insulin release inhibition, rat insulinoma INS-1E line, 5 mM glucose, cell-based (AID 1117331); format: functional
[25] = rise of 2N DNA cells, HeLa – IC50, dose response (AID 1117349); format: functional, cell-based
[26] = rise of 4N DNA cells, HeLa – IC50, dose response (AID 1117351); format: functional, cell-based

Chain of Disintegrin and metalloproteinase domain-containing protein 17 (P78536 whole entry, the tested form may be a part): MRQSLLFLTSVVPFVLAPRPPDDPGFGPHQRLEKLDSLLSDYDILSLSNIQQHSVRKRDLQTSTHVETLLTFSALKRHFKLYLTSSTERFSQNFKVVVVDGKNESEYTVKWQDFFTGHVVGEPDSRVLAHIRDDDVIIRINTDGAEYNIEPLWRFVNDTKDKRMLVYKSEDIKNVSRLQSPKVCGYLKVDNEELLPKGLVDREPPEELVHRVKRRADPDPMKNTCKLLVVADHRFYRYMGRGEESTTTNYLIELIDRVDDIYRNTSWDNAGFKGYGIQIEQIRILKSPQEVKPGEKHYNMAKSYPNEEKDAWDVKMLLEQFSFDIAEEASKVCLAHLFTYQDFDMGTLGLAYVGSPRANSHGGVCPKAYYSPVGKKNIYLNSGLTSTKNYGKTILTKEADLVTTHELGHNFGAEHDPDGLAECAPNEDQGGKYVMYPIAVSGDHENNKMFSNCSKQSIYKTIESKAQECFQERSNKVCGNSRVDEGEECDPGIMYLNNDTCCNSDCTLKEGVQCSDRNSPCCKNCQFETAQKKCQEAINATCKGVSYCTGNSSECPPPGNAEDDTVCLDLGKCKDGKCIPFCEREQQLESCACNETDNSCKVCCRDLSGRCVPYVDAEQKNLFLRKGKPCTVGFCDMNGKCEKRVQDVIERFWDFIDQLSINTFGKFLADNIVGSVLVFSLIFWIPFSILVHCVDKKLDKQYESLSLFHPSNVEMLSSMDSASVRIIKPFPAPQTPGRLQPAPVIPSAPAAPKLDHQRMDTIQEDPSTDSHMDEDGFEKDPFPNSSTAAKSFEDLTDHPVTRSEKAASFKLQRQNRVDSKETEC

With `O=[N+]([O-])c1cccnc1N1CCC(c2cc(-c3ccc(Cl)cc3)[nH]n2)CC1` the IC50 [1] was > 69.5 µM (inactive), the EC50 [2] was 5.14 µM (active) and the EC50 (Streptococcus) was 9.6 µM (active). For the same molecule, the EC50 (Streptokinase A) was 33.3 µM (active).
For `COc1ccc(-c2noc(-c3cccs3)n2)cc1OC`, the EC50 (Transthyretin) was > 167 µM (inactive).
For `O=C(NCc1nc2ccccc2[nH]1)C1=C[C@@H](C2CC2)C[C@@H](OCc2ccc(CO)cc2)O1`, the IC50 [3] was > 83.3 µM (inactive), the IC50 [4] was 0.811 µM (active) and the IC50 [5] was 1.62 µM (active). For the same molecule, the IC50 [6] was 83.3 µM (inactive).
With `Cc1ccc(C(=O)CSc2ccccc2C(=O)O)cc1` the IC50 [7] was 10.8 µM (not active).
For `Cc1ccccc1-n1ncc2c(SCC(=O)N3c4ccccc4CC3C)ncnc21` (stereo not given), the IC50 (Prothrombin) was > 50 µM (not active), the IC50 [8] was 11.7 µM (active) and the AC50 (Cytochrome P450 3A4) was “inconclusive”. The AC50 [9] was 15.4 µM (active), the AC50 (HEK293) was 15.4 µM (active) and the IC50 [10] was 11 µM (active). For the same molecule, the EC50 [11] was > 53 µM (inactive).
With `[O-][n+]1onc2c3cc(-c4ccccc4)nnc3ccc21` the EC50 [12] was 1.48 µM (active).
For `CN1CCN(c2ccc(NC(=O)c3sc4ccccc4c3Cl)cc2)CC1`, the AC50 [13] was 2.49 µM (active), the AC50 [14] was 7.85 µM (active) and the EC50 [12] was > 0.377 µM (active). The AC50 [15] was 25.5 µM (active) and the AC50 [16] was 22 µM (active).
With `Cc1nc2ccc(Br)cc2c(O)c1CN1CCCCCC1` the IC50 [3] was > 83.3 µM (inactive), the IC50 [4] was 4.16 µM (active) and the IC50 [5] was 6.91 µM (active). For the same molecule, the IC50 [6] was 83.3 µM (inactive).
For `CCOc1ccc(-c2nnn(CC(=O)c3ccc4c(c3)OCCO4)n2)cc1OCC`, the IC50 (Protein Tat) was > 100 µM (active).
For `Oc1ccc(-c2nccc(-c3cccs3)n2)cc1`, the AC50 [17] was 6.5 µM (active), the EC50 (cells [18]) was > 67.6 µM (inactive) and the EC50 [19] was > 67.6 µM (inactive). For the same molecule, the CC50 [20] was 27.9 µM (active).
In the case of `COc1ccc2c3c(n(C)c2c1)[C@H](CO)NCC31CN(Cc2ccc(-c3ccccn3)cc2)C1`, the AC50 [21] is reported as 1.15 µM (active) and the AC50 [22] is reported as 11.6 µM (active).
In the case of `C[C@@H]1CN([C@@H](C)CO)C(=O)c2c(c3ccccc3n2C)-c2ccccc2CO[C@@H]1CN(C)Cc1cccc(F)c1`, the AC50 [21] is reported as 3.5 µM (active) and the AC50 [22] is reported as 23.5 µM (active).
With `COc1cc(C(=O)OCCCN2CCCN(CCCOC(=O)c3cc(OC)c(OC)c(OC)c3)CC2)cc(OC)c1OC` [DILAZEP] the IC50 (cells [23]) was 18 µM (inactive) and the IC50 [24] was 10.2 µM (inactive).
For `COc1ccc(-c2nc3cc(C4=NNC(=O)CC4C)ccc3[nH]2)cc1` (stereo not given) [PIMOBENDAN], the IC50 [25] was > 10 µM (inactive) and the IC50 [26] was > 10 µM (inactive).
